Reference: ChEMBL document CHEMBL1142381, “Design, synthesis, and biological evaluation of (hydroxyphenyl)naphthalene and -quinoline derivatives: potent and selective nonsteroidal inhibitors of 17beta-hydroxysteroid dehydrogenase type 1 (17beta-HSD1) for the treatment of estrogen-dependent diseases” (J Med Chem, 2008)

Columns and labels:
[1] = target: T1, 17-beta-hydroxysteroid dehydrogenase type 1 (Homo sapiens) (UniProt P14061); assay: Inhibition of human recombinant 17beta-HSD1 expressed in Sf9 insect cells at 100 nM
T1 sequence (whole entry): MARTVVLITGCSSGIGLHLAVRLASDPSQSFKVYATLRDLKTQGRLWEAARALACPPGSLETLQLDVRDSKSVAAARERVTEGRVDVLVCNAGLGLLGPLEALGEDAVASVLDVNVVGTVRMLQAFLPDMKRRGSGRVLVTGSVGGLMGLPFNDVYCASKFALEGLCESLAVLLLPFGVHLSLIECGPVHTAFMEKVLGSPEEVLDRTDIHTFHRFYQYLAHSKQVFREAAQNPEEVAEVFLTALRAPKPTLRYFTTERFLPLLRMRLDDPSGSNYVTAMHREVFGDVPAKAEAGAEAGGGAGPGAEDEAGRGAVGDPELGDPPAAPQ

[2] = target: T1, 17-beta-hydroxysteroid dehydrogenase type 1 (Homo sapiens); assay: Inhibition of human recombinant 17beta-HSD1 expressed in Sf9 insect cells at 1 uM
[3] = species on record: Homo sapiens; assay: Selectivity ratio for human placental 17beta-HSD1 over human placental 17beta-HSD2
[4] = target: T2, Estrogen receptor (Homo sapiens) (UniProt P03372); assay: Displacement of [3H]estradiol from human recombinant ERalpha relative to estradiol
T2 sequence (whole entry): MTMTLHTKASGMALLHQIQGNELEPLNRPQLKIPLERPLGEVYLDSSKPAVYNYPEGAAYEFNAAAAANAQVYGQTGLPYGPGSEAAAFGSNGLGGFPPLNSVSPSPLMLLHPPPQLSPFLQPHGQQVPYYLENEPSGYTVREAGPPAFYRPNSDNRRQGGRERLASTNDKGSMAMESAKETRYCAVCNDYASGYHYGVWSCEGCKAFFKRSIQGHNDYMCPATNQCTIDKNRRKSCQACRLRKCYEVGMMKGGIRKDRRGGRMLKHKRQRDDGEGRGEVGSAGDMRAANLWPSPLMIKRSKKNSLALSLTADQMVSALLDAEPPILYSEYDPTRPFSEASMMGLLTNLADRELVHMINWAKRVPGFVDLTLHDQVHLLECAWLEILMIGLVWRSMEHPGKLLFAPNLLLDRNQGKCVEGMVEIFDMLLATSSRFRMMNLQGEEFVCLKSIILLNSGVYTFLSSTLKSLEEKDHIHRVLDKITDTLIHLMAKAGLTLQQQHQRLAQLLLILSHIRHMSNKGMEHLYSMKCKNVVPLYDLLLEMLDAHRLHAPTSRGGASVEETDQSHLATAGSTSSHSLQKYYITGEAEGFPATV

[5] = target: T3, 17-beta-hydroxysteroid dehydrogenase type 2 (Homo sapiens, UniProt P37059); assay: Inhibition of human placental 17beta-HSD2
T3 sequence (P37059 whole entry): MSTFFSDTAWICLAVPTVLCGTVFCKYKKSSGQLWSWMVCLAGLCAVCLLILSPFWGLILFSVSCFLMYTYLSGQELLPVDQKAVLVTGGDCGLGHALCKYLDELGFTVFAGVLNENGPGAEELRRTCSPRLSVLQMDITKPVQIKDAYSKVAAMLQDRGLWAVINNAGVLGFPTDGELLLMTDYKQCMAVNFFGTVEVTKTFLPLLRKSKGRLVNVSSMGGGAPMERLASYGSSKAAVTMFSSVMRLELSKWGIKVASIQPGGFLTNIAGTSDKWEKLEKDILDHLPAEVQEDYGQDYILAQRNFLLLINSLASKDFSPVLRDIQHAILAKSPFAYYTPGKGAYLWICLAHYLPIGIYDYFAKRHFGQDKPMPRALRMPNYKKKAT

[6] = target: T4, 17-beta-hydroxysteroid dehydrogenase type 1 (Homo sapiens, UniProt P14061); assay: Inhibition of human placental 17beta-HSD1
T4 sequence (P14061 whole entry): T1 sequence (whole entry)

[7] = target: Estrogen receptor beta (Homo sapiens) (UniProt Q92731); assay: Displacement of [3H]estradiol from human recombinant ERbeta relative to estradiol
Sequence of Estrogen receptor beta (Homo sapiens) (Q92731 whole entry): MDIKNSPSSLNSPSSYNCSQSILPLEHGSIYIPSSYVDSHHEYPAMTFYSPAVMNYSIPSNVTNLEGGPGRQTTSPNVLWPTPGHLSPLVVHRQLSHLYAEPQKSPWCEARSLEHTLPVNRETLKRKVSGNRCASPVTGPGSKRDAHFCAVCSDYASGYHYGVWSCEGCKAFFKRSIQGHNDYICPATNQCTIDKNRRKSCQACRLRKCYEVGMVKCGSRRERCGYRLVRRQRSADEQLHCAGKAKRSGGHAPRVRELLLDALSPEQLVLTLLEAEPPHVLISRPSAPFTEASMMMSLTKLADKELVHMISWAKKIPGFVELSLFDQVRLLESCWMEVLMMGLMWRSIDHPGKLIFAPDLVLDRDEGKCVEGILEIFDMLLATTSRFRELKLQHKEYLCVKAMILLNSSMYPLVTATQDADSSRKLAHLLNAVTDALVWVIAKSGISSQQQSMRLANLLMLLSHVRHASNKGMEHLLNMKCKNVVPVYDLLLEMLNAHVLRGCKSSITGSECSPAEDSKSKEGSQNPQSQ

[8] = Apparent permeability across human Caco-2 cell membrane; type: ADME, cell-based

SMILES	inhibition [1] [%]	inhibition [2] [%]	further results
CC(=O)Nc1cccc(-c2ccc3cc(O)ccc3c2)c1	< 10	19	–
Oc1cccc(-c2cnc3ccccc3c2)c1	< 10	18	–
O=C(O)c1cccc(-c2ccc3cc(O)ccc3c2)c1	36	76	–
Oc1cccc(-c2ccc3cc(O)ccc3n2)c1	14	63	–
Oc1cccc(-c2ccc3ccccc3c2)c1	26	61	Ratio IC50 [3]: 1.8; RBA [4]: 0.01%; IC50 [5]: 4010 nM; IC50 [6]: 2260 nM; RBA [7]: 0.01%
C[C@]12CC[C@@H]3c4ccc(O)cc4CC[C@H]3[C@@H]1CC(CCCCCCCCC(=O)OC[C@H]1O[C@@H](n3cnc4c(N)ncnc43)[C@H](O)[C@@H]1O)[C@@H]2O (stereo partly drawn)	–	–	IC50 [6]: 52 nM
Oc1cncc(-c2ccc3cc(O)ccc3c2)c1	30	58	Ratio IC50 [3]: > 8; RBA [4]: 0.01%; IC50 [5]: > 10000 nM; IC50 [6]: 1230 nM; RBA [7]: 1%
Oc1cccc(-c2cnc3cc(O)ccc3c2)c1	24	57	–
O=C1CCCc2cc(-c3cccc(O)c3)ccc21	< 10	23	–
O=[N+]([O-])c1cccc(-c2ccc3cc(O)ccc3c2)c1	< 10	< 10	–
Oc1ccc(-c2ccc3cc(O)ccc3c2)cc1	< 10	< 10	–
Oc1cccc(-c2cc3cc(O)ccc3[nH]2)c1	< 10	< 10	–
Oc1ccc2cc(-c3ccccc3O)ccc2c1	< 10	< 10	–
O=C(O)c1ccc(-c2ccc3cc(O)ccc3c2)cc1	< 10	< 10	–
Oc1ccc2cc(-c3cccnc3)ccc2c1	< 10	32	–
Oc1ccc2cc(-c3cccs3)ccc2c1	< 10	< 10	–
Oc1cccc(-c2ccc3c(O)cccc3c2)c1	< 10	23	–
Oc1ccc2cc(-c3ccccc3)ccc2c1	< 10	< 10	–
Nc1cccc(-c2ccc3cc(O)ccc3c2)c1	< 10	< 10	–
Oc1ccc(-c2ccc3c(O)cccc3c2)cc1	–	–	Ratio IC50 [3]: 0.1; RBA [4]: 5%; IC50 [5]: 302 nM; IC50 [6]: 2420 nM; RBA [7]: 5%
Oc1ccc(-c2cnc3cc(O)ccc3c2)cc1	< 10	< 10	–
OCc1ccc(-c2ccc3cc(O)ccc3c2)cc1	< 10	13	–
Oc1cccc(-c2ccc3ccc(O)cc3c2)c1	16	62	–
OCc1cccc(-c2ccc3cc(O)ccc3c2)c1	< 10	< 10	–
Oc1ccc(-c2cnc3ccccc3c2)cc1	< 10	< 10	–
Oc1cccc(-c2ccc3cc(O)ccc3c2)c1	–	–	Papp [8]: 8.9 ×10⁻⁶ cm/s; RBA [4]: 0.2%; IC50 [6]: 116 nM; RBA [7]: 0.8%
Oc1ccc2cc(-c3ccsc3)ccc2c1	< 10	< 10	–
